# Assay results from patent US20120202847A1, “Novel Tetrahydroisoquinoline Compounds” (priority 2009, published 2012).
# Target: T1, DGAT1 enzyme (Homo sapiens, UniProt O75907)
# T1 construct: made in house
# T1 sequence (O75907 1-488): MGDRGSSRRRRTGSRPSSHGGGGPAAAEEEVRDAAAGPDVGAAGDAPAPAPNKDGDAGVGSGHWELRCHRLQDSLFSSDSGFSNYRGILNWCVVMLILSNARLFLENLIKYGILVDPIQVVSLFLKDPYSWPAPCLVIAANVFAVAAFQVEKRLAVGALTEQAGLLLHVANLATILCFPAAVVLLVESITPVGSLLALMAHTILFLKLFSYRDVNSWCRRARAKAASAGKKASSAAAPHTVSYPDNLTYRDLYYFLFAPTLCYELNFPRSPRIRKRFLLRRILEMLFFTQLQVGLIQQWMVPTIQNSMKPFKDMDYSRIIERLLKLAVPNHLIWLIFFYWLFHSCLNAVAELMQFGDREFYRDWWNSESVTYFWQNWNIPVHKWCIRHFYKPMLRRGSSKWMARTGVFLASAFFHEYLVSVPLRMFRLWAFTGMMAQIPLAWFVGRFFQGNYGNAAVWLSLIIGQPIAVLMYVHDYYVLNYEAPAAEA
# Test: DGAT1 inhibitory activity test
# Type: biochemical
# Conditions: test compound concentration of 0.05 μg/ml; [14C]-oleoyl-CoA, 23° C., 30 minutes; read-out: Inhibitory Rate
# Protocol: (1) Preparation of DGAT1 Enzyme
# DGAT1 enzyme was prepared and stored according to the method described in US2007/0249620.
# (2) DGAT1 Inhibitory Activity Test
# A reaction solution having the following composition was incubated at room temperature (23° C.) for 30 minutes: 175 mM Tris-HCl (pH 8.0), 8 mM MgCl2, 1 mg/ml BSA, 0.3 mM 1,2-dioleoyl-sn-glycerol (10-fold concentration of EtOH solution, 10% added), 10 μM [^14C]-oleoyl-CoA (approximately 50 mCi/mmol), 0.5% Triton X-100, the DGAT1 enzyme (10 μg) obtained in Test Example 1(1), and a test compound or vehicle (DMSO/MeOH, 7:3 solution, 5% added), 50 μl in total. A reaction stop solution […] consisting of isopropanol/1-heptane/water (80:20:2, v/v/v) was added to the reaction solution and stirred. Subsequently, water […] and 1-heptane (100 μl) were added thereto and stirred. The 1-heptane layer […] was spotted onto a TLC plate and developed with a developing solvent consisting of 1-hexane/diethyl ether/acetic acid (85:15:1, v/v/v). The radioactivity of the triglyceride fraction was quantified using BAS2500 Bio Image Analyzer (FUJIFILM) and compared with the control. The inhibitory activity of the test compound was calculated according to the formula shown below. In this context, the radioactivity at no reaction (0 minute incubation) was used as background.
# Inhibitory Rate=100−[(Radioactivity of sample supplemented with test compound)−(Background)]/[(Radioactivity of control)−(Background)]×100
row,Structure (SMILES),inhibition at 0.05 µg/mL
1,"Cc1ccc(NC(=O)Nc2ccc3c(c2)CCN(C(=O)O[C@H]2CC[C@H](CC(=O)O)CC2)C3)c(Cl)c1 [Example 20, trans-6-[3-(2-chloro-4-methyl-phenyl)-ureido]-3,4-dihydro-1H-isoquinoline-2-carboxylic acid 4-carboxymethyl-cyclohexyl ester]",≥ 50%
2,"O=C(O)C[C@H]1CC[C@H](OC(=O)N2CCc3cc(NC(=O)Nc4cc(C(F)(F)F)ccc4F)ccc3C2)CC1 [Example 22, trans-6-[3-(2-fluoro-5-trifluoromethyl-phenyl)-ureido]-3,4-dihydro-1H-isoquinoline-2-carboxylic acid 4-carboxymethyl-cyclohexyl ester]",≥ 50%
3,"O=C(O)C[C@H]1CC[C@H](OC(=O)N2CCc3cc(NC(=O)Nc4ccc(C(F)(F)F)cc4Cl)ccc3C2)CC1 [Example 29, trans-6-[3-(2-chloro-4-trifluoromethyl-phenyl)-ureido]-3,4-dihydro-1H-isoquinoline-2-carboxylic acid 4-carboxymethyl-cyclohexyl ester]",≥ 50%
4,"Cc1cccc(NC(=O)Nc2ccc3c(c2)CCN(C(=O)O[C@H]2CC[C@H](CC(=O)O)CC2)C3)c1Cl [Example 27, trans-6-[3-(2-chloro-3-methyl-phenyl)-ureido]-3,4-dihydro-1H-isoquinoline-2-carboxylic acid 4-carboxymethyl-cyclohexyl ester]",≥ 50%
5,"O=C(O)C[C@H]1CC[C@H](OC(=O)N2CCc3cc(NC(=O)Nc4ccccc4Cl)ccc3C2)CC1 [Example 2, trans-6-[3-(2-chloro-phenyl)-ureido]-3,4-dihydro-1H-isoquinoline-2-carboxylic acid 4-carboxymethyl-cyclohexyl ester]",≥ 50%
6,"COc1ccc(NC(=O)Nc2ccc3c(c2)CCN(C(=O)O[C@H]2CC[C@H](CC(=O)O)CC2)C3)cc1OC [Example 44, trans-6-[3-(3,4-dimethoxy-phenyl)-ureido]-3,4-dihydro-1H-isoquinoline-2-carboxylic acid 4-carboxymethyl-cyclohexyl ester]",≥ 50%
7,"O=C(O)C[C@H]1CC[C@H](OC(=O)N2CCc3cc(NC(=O)Nc4c(F)cccc4C(F)(F)F)ccc3C2)CC1 [Example 25, trans-6-[3-(2-fluoro-6-trifluoromethyl-phenyl)-ureido]-3,4-dihydro-1H-isoquinoline-2-carboxylic acid 4-carboxymethyl-cyclohexyl ester]",≥ 50%
8,"O=C(O)C[C@H]1CC[C@H](OC(=O)N2CCc3cc(NC(=O)Nc4ccccc4C(F)(F)F)ccc3C2)CC1 [Example 17, trans-6-[3-(2-trifluoromethyl-phenyl)-ureido]-3,4-dihydro-1H-isoquinoline-2-carboxylic acid 4-carboxymethyl-cyclohexyl ester]",≥ 50%
9,Cc1cc(Cl)ccc1NC(=O)Nc1ccc2c(c1)CCN(C(=O)O[C@H]1CC[C@H](CC(=O)O)CC1)C2 [Example 26],≥ 50%
10,"Cc1cccc(NC(=O)Nc2ccc3c(c2)CCN(C(=O)O[C@H]2CC[C@H](CC(=O)O)CC2)C3)c1C [Example 35, trans-6-[3-(2,3-dimethyl-phenyl)-ureido]-3,4-dihydro-1H-isoquinoline-2-carboxylic acid 4-carboxymethyl-cyclohexyl ester]",≥ 50%
11,"Cc1ccc(NC(=O)Nc2ccc3c(c2)CCN(C(=O)O[C@H]2CC[C@H](CC(=O)O)CC2)C3)c(C)c1 [Example 23, trans-6-[3-(2,4-dimethyl-phenyl)-ureido]-3,4-dihydro-1H-isoquinoline-2-carboxylic acid 4-carboxymethyl-cyclohexyl ester]",≥ 50%

# Second part, the molecule after the results:
row,inhibition at 0.05 µg/mL,Structure (SMILES)
1,≥ 50%,"COc1ccc(NC(=O)Nc2ccc3c(c2)CCN(C(=O)O[C@H]2CC[C@H](CC(=O)O)CC2)C3)cc1F [Example 45, trans-6-[3-(3-fluoro-4-methoxy-phenyl)-ureido]-3,4-dihydro-1H-isoquinoline-2-carboxylic acid 4-carboxymethyl-cyclohexyl ester]"
2,≥ 50%,"O=C(O)C[C@H]1CC[C@H](OC(=O)N2CCc3cc(NC(=O)Nc4ccc(F)c(Cl)c4)ccc3C2)CC1 [Example 32, trans-6-[3-(3-chloro-4-fluoro-phenyl)-ureido]-3,4-dihydro-1H-isoquinoline-2-carboxylic acid 4-carboxymethyl-cyclohexyl ester]"
3,≥ 50%,"O=C(O)C[C@H]1CC[C@H](OC(=O)N2CCc3cc(NC(=O)Nc4ccc(C(F)(F)F)cc4F)ccc3C2)CC1 [Example 16, trans-6-[3-(2-fluoro-4-trifluoromethyl-phenyl)-ureido]-3,4-dihydro-1H-isoquinoline-2-carboxylic acid 4-carboxymethyl-cyclohexyl ester]"
4,≥ 50%,"Cc1ccc(NC(=O)Nc2ccc3c(c2)CCN(C(=O)O[C@H]2CC[C@H](CC(=O)O)CC2)C3)cc1Cl [Example 34, trans-6-[3-(3-chloro-4-methyl-phenyl)-ureido]-3,4-dihydro-1H-isoquinoline-2-carboxylic acid 4-carboxymethyl-cyclohexyl ester]"
5,≥ 50%,"O=C(O)C[C@H]1CC[C@H](OC(=O)N2CCc3cc(NC(=O)Nc4cccc(Cl)c4F)ccc3C2)CC1 [Example 10, trans-6-[3-(3-chloro-2-fluoro-phenyl)-ureido]-3,4-dihydro-1H-isoquinoline-2-carboxylic acid 4-carboxymethyl-cyclohexyl ester]"
6,≥ 50%,"Cc1cccc(F)c1NC(=O)Nc1ccc2c(c1)CCN(C(=O)O[C@H]1CC[C@H](CC(=O)O)CC1)C2 [Example 9, trans-6-[3-(2-fluoro-6-methyl-phenyl)-ureido]-3,4-dihydro-1H-isoquinoline-2-carboxylic acid 4-carboxymethyl-cyclohexyl ester]"
7,≥ 50%,"O=C(O)C[C@H]1CC[C@H](OC(=O)N2CCc3cc(NC(=O)Nc4c(F)cccc4Cl)ccc3C2)CC1 [Example 13, trans-6-[3-(2-chloro-6-fluoro-phenyl)-ureido]-3,4-dihydro-1H-isoquinoline-2-carboxylic acid 4-carboxymethyl-cyclohexyl ester]"
8,≥ 50%,"O=C(O)C[C@H]1CC[C@H](OC(=O)N2CCc3cc(NC(=O)Nc4cccc(Cl)c4)ccc3C2)CC1 [Example 46, trans-6-[3-(3-chloro-phenyl)-ureido]-3,4-dihydro-1H-isoquinoline-2-carboxylic acid 4-carboxymethyl-cyclohexyl ester]"
9,≥ 50%,"Cc1ccc(NC(=O)Nc2ccc3c(c2)CCN(C(=O)O[C@H]2CC[C@H](CC(=O)O)CC2)C3)c(F)c1 [Example 8, trans-6-[3-(2-fluoro-4-methyl-phenyl)-ureido]-3,4-dihydro-1H-isoquinoline-2-carboxylic acid 4-carboxymethyl-cyclohexyl ester]"
10,≥ 50%,"COc1ccc(NC(=O)Nc2ccc3c(c2)CCN(C(=O)O[C@H]2CC[C@H](CC(=O)O)CC2)C3)cc1Cl [Example 41, trans-6-[3-(3-chloro-4-methoxy-phenyl)-ureido]-3,4-dihydro-1H-isoquinoline-2-carboxylic acid 4-carboxymethyl-cyclohexyl ester]"
11,≥ 50%,"O=C(O)C[C@H]1CC[C@H](OC(=O)N2CCc3cc(NC(=O)Nc4cc(F)cc(F)c4)ccc3C2)CC1 [Example 31, trans-6-[3-(3,5-difluoro-phenyl)-ureido]-3,4-dihydro-1H-isoquinoline-2-carboxylic acid 4-carboxymethyl-cyclohexyl ester]"

# Tested on: C57BL/6N mice
# Test: Feeding suppressant activity on a high-fat diet
# Type: in vivo
# Conditions: male C57BL/6N mice, oral dose of 3 mg/kg; food intake 6 hours after initiation of high-fat diet feeding
# Protocol: Male C57BL/6N mice (7-12 weeks old, body weight: 17-25 g, Charles River Laboratories Japan Inc.) were individually housed and fed on a high-fat diet (fat content: 45 kcal %: Research Diets, Inc. D12451) for 1 week or longer for acclimatization. Based on the food intake during the period, the animals were equally assigned to experimental groups and fasted overnight. Then, a vehicle (0.5% methylcellulose) or each test compound (1 to 10 mg/kg) suspended in vehicle was orally administered (10 mL/kg) to each group. 30 minutes after administration, the animals were fed on a high-fat diet, and the food intake was measured 6 hours after initiation of feeding. The feeding suppressant activity of each test compound was calculated based on the equation shown below.
# Feeding suppressant activity(%)=[(Food intake of Vehicle group)−(Food intake of each test compound group)]/[(Food intake of Vehicle group)]×100
row,Structure (SMILES),Feeding suppressant activity
1,"O=C(O)C[C@H]1CC[C@H](OC(=O)N2CCc3cc(NC(=O)Nc4ccccc4Cl)ccc3C2)CC1 [Example 2, trans-6-[3-(2-chloro-phenyl)-ureido]-3,4-dihydro-1H-isoquinoline-2-carboxylic acid 4-carboxymethyl-cyclohexyl ester]",70%
